Test results as given in patent US8003649B2 (AstraZeneca AB, priority 2007, dated 2011).

target: T1, Androgen Receptor (AR) (Homo sapiens, UniProt P10275, T878A); experiment: LNCaP Androgen Receptor Down-regulation Cell Assay (immunofluorescence end point); type: cell-based; details: LNCaP prostate carcinoma cells, compound incubation 20-22 hours, 50% reduction of the AR signal; read-out: Androgen Receptor Down-regulation Assay (a) IC50/μM
T1 construct: cell based immuno-fluorescence assay using the LNCaP prostate epithelial cell line; endogenous in cells; host or cells: LNCaP clone FGC (ATCC CRL-1740)
T1 sequence (P10275 1-920 T878A): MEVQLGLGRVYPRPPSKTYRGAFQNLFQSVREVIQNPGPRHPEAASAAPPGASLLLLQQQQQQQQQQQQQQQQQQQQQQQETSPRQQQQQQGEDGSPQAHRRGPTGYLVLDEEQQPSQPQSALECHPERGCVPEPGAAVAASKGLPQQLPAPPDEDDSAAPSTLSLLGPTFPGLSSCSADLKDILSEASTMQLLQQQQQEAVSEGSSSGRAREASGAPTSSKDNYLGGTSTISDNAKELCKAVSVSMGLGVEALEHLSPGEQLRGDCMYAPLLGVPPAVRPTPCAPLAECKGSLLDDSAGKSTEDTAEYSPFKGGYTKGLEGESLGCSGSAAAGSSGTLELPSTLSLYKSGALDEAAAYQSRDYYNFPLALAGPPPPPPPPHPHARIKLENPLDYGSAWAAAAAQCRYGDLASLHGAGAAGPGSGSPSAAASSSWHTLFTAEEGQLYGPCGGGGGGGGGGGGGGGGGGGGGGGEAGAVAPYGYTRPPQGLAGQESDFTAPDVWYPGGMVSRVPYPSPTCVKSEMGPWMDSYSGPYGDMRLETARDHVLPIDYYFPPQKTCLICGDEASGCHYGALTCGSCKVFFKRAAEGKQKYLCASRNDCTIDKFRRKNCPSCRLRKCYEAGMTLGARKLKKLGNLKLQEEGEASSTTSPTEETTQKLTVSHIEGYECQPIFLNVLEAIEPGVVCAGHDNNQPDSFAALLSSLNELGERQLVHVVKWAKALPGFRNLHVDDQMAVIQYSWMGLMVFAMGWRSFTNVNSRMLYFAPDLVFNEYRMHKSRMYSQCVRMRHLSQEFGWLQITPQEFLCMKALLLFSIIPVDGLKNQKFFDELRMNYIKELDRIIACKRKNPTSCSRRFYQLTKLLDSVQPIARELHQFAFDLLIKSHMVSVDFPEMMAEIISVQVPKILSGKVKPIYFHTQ
In short: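 AR loss reported as IC50 from curve fits of fluorescence dose-response data, with AR immunostained and read by laser-scanning cytometry. Compound exposure was 20-22 h at 37° C in LNCaP cells grown in 5% charcoal-stripped FBS and plated overnight beforehand.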

| Compound | DC50 |
| --- | --- |
| Fc1ccc(CN2CCCN(c3ccc4nnc(C(F)(F)F)n4n3)CC2)cc1 [Example 177, 6-[4-[(4-fluorophenyl)methyl]-1,4-diazepan-1-yl]-3-(trifluoromethyl)-[1,2,4]triazolo[4,3-b]pyridazine] | 0.77 µM |
| COc1ccc(CN2CCCN(c3ccc4nnc(C(F)(F)F)n4n3)CC2)cc1 [Example 181, 6-[4-[(4-methoxyphenyl)methyl]-1,4-diazepan-1-yl]-3-(trifluoromethyl)-[1,2,4]triazolo[4,3-b]pyridazine] | 2.1 µM |
| FC(F)(F)c1ccc(CN2CCN(c3ccc4nnc(C(F)(F)F)n4c3)CC2)cc1 [Example 186, 3-(trifluoromethyl)-6-[4-[[4-(trifluoromethyl)phenyl]methyl]piperazin-1-yl]-[1,2,4]triazolo[4,3-a]pyridine] | 2.8 µM |
| N#Cc1cccc(CN2CCN(c3ccc4nnc(C(F)(F)F)n4c3)CC2)c1 [Example 188, 3-[[4-[3-(trifluoromethyl)-[1,2,4]triazolo[4,3-a]pyridin-6-yl]piperazin-1-yl]methyl]benzonitrile] | 2.2 µM |
| Fc1cccc(CN2CCN(c3ccc4nnc(C(F)(F)F)n4c3)CC2)c1 [Example 189, 6-[4-[(3-fluorophenyl)methyl]piperazin-1-yl]-3-(trifluoromethyl)-[1,2,4]triazolo[4,3-a]pyridine] | 1.1 µM |
| FC(F)(F)c1nnc2ccc(N3CCN(Cc4ccc(Cl)cc4)CC3)cn12 [Example 190, 6-[4-[(4-chlorophenyl)methyl]piperazin-1-yl]-3-(trifluoromethyl)-[1,2,4]triazolo[4,3-a]pyridine] | 0.79 µM |
| COc1ccc(CN2CCN(c3ccc4nnc(C(F)(F)F)n4c3)CC2)cc1 [Example 192, 6-[4-[(4-methoxyphenyl)methyl]piperazin-1-yl]-3-(trifluoromethyl)-[1,2,4]triazolo[4,3-a]pyridine] | 8.7 µM |
| FC(F)(F)c1nnc2ccc(N3CC4CN(Cc5ccncc5)CC4C3)nn12 (stereo not drawn) [Example 193, 6-[2-(pyridin-4-ylmethyl)-1,3,3a,4,6,6a-hexahydropyrrolo[3,4-c]pyrrol-5-yl]-3-(trifluoromethyl)-[1,2,4]triazolo[4,3-b]pyridazine] | 2 µM |
| COc1cccc(CN2CC3CN(c4ccc5nnc(C(F)(F)F)n5n4)CC3C2)c1 (stereo not drawn) [Example 194, 6-[2-[(3-methoxyphenyl)methyl]-1,3,3a,4,6,6a-hexahydropyrrolo[3,4-c]pyrrol-5-yl]-3-(trifluoromethyl)-[1,2,4]triazolo[4,3-b]pyridazine] | 2.4 µM |
| FC(F)(F)c1cccc(CN2CC3CN(c4ccc5nnc(C(F)(F)F)n5n4)CC3C2)c1 (stereo not drawn) [Example 196, 3-(trifluoromethyl)-6-[2-[[3-(trifluoromethyl)phenyl]methyl]-1,3,3a,4,6,6a-hexahydropyrrolo[3,4-c]pyrrol-5-yl]-[1,2,4]triazolo[4,3-b]pyridazine] | 1.5 µM |
| N#Cc1cccc(CN2CC3CN(c4ccc5nnc(C(F)(F)F)n5n4)CC3C2)c1 (stereo not drawn) [Example 197, 3-[[5-[3-(trifluoromethyl)-[1,2,4]triazolo[4,3-b]pyridazin-6-yl]-1,3,3a,4,6,6a-hexahydropyrrolo[3,4-c]pyrrol-2-yl]methyl]benzonitrile] | 0.82 µM |
| FC(F)(F)c1ccc(CN2CC3CN(c4ccc5nnc(C(F)(F)F)n5n4)CC3C2)cc1 (stereo not drawn) [Example 199, 3-(trifluoromethyl)-6-[2-[[4-(trifluoromethyl)phenyl]methyl]-1,3,3a,4,6,6a-hexahydropyrrolo[3,4-c]pyrrol-5-yl]-[1,2,4]triazolo[4,3-b]pyridazine] | 1.9 µM |
| FC(F)(F)c1ccc(CN2CC3CN(c4ccc5nnc(C(F)(F)F)n5n4)CC3C2)cn1 (stereo not drawn) [Example 201, 3-(trifluoromethyl)-6-[2-[[6-(trifluoromethyl)pyridin-3-yl]methyl]-1,3,3a,4,6,6a-hexahydropyrrolo[3,4-c]pyrrol-5-yl]-[1,2,4]triazolo[4,3-b]pyridazine] | 1.7 µM |
| Fc1ccc(CN2CC3CN(c4ccc5nnc(C(F)(F)F)n5n4)CC3C2)cc1 (stereo not drawn) [Example 203, 6-[2-[(4-fluorophenyl)methyl]-1,3,3a,4,6,6a-hexahydropyrrolo[3,4-c]pyrrol-5-yl]-3-(trifluoromethyl)-[1,2,4]triazolo[4,3-b]pyridazine] | 1.7 µM |
| N#Cc1ccc(CN2CC3CN(c4ccc5nnc(C(F)(F)F)n5n4)CC3C2)cc1 (stereo not drawn) [Example 205, 4-[[5-[3-(trifluoromethyl)-[1,2,4]triazolo[4,3-b]pyridazin-6-yl]-1,3,3a,4,6,6a-hexahydropyrrolo[3,4-c]pyrrol-2-yl]methyl]benzonitrile] | 0.53 µM |
| FC(F)(F)c1nnc2ccc(N3CC4CN(Cc5cccnc5)CC4C3)nn12 (stereo not drawn) [Example 206, 6-[2-(pyridin-3-ylmethyl)-1,3,3a,4,6,6a-hexahydropyrrolo[3,4-c]pyrrol-5-yl]-3-(trifluoromethyl)-[1,2,4]triazolo[4,3-b]pyridazine] | 2 µM |

Further compounds by falling DC50, results first:

| DC50 | Compound |
| --- | --- |
| 7.6 µM | COc1cccc(C(=O)N2CC3CN(c4ccc5nnc(C(F)(F)F)n5n4)CC3C2)c1 (stereo not drawn) [Example 207, (3-methoxyphenyl)-[2-[3-(trifluoromethyl)-[1,2,4]triazolo[4,3-b]pyridazin-6-yl]-1,3,3a,4,6,6a-hexahydropyrrolo[3,4-c]pyrrol-5-yl]methanone] |
| 4.7 µM | N#Cc1ccc(CN2CCN(c3ccc4nnc(C(F)(F)F)n4c3)CC2)cc1 [Example 187, 4-[[4-[3-(trifluoromethyl)-[1,2,4]triazolo[4,3-a]pyridin-6-yl]piperazin-1-yl]methyl]benzonitrile] |
| 2.1 µM | Fc1ccc(CN2CCN(c3ccc4nnc(C(F)(F)F)n4c3)CC2)cc1 [Example 191, 6-[4-[(4-fluorophenyl)methyl]piperazin-1-yl]-3-(trifluoromethyl)-[1,2,4]triazolo[4,3-a]pyridine] |
| 1.8 µM | FC(F)(F)c1nnc2ccc(N3CC4CN(Cc5ccccc5)CC4C3)nn12 (stereo not drawn) [Example 210, 6-(5-benzyl-1,3,3a,4,6,6a-hexahydropyrrolo[3,4-c]pyrrol-2-yl)-3-(trifluoromethyl)-[1,2,4]triazolo[3,4-f]pyridazine] |
| 1.5 µM | FC(F)(F)c1nnc2ccc(N3CC4CN(Cc5ccc(Cl)cc5)CC4C3)nn12 (stereo not drawn) [Example 204, 6-[2-[(4-chlorophenyl)methyl]-1,3,3a,4,6,6a-hexahydropyrrolo[3,4-c]pyrrol-5-yl]-3-(trifluoromethyl)-[1,2,4]triazolo[4,3-b]pyridazine] |
| 0.88 µM | Cc1cccc(CN2CCCN(c3ccc4nnc(C(F)(F)F)n4n3)CC2)c1 [Example 178, 6-[4-[(3-methylphenyl)methyl]-1,4-diazepan-1-yl]-3-(trifluoromethyl)-[1,2,4]triazolo[4,3-b]pyridazine] |
| 0.68 µM | FC(F)(F)c1cccc(CN2CCN(c3ccc4nnc(C(F)(F)F)n4c3)CC2)c1 [Example 185, 3-(trifluoromethyl)-6-[4-[[3-(trifluoromethyl)phenyl]methyl]piperazin-1-yl]-[1,2,4]triazolo[4,3-a]pyridine] |
| 0.59 µM | FC(F)(F)c1cccc(CN2CCCN(c3ccc4nnc(C(F)(F)F)n4n3)CC2)c1 [Example 179, 3-(trifluoromethyl)-6-[4-[[3-(trifluoromethyl)phenyl]methyl]-1,4-diazepan-1-yl]-[1,2,4]triazolo[4,3-b]pyridazine] |
